# Reference: paper PMC8580996, “2-Oxoglutarate derivatives can selectively enhance or inhibit the activity of human oxygenases” (Nature Communications, 2021)
# Values joined by “and” are separate entries in the source; they are usually repeats but may differ in a detail not shown here. Identical values can stand only once. “Also recorded” adds a separate entry of the source.
# Assays:
# [1] = target: T1, AspH (Homo sapiens, UniProt Q12797); settings: 0.05 μM AspH, 1.0 μM hFX-CP101-119, 3.0 μM 2OG, ref 21 (supplementary ref 1); cited from earlier work
# T1 construct: the tetratricopeptide repeat domain (His6-AspH315-758), was produced and purified as previously reported; made in house
# T1 sequence (Q12797 315-758): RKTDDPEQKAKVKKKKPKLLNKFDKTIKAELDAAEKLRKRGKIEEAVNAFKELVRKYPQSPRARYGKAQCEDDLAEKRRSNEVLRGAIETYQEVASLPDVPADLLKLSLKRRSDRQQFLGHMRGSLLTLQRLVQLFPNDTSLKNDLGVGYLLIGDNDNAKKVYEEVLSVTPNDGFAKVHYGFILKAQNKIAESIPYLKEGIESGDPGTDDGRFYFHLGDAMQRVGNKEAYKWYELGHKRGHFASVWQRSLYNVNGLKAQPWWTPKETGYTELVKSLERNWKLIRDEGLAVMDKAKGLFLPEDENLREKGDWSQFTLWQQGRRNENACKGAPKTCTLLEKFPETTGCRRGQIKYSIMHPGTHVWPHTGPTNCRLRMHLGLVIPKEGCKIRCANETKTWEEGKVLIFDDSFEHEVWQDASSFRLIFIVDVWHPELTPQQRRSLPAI
# [2] = target: FIH (Homo sapiens, UniProt Q9NWT6); test: FIH steady-state kinetic parameters (SPE-MS, initial hydroxylation rates); format: biochemical; design: slope of initial reaction rate: unit not given here
# FIH, sequence (Q9NWT6 whole entry): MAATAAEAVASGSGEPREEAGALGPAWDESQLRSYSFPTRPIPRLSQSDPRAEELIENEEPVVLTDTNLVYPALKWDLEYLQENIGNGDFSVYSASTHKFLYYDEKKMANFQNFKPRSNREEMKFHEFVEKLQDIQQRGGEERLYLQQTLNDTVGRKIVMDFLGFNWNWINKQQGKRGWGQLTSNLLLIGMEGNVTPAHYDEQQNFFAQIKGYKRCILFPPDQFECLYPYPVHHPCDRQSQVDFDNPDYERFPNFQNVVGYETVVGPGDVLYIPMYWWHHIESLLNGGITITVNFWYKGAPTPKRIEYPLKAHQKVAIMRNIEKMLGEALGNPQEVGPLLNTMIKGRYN
# Experimental: Final 2OG/2OG derivative concentrations are given in Supplementary Figs. 5 and 6. Reactions were monitored with a rate of ~1 sample/40 s using the same SPE-MS configuration as described above. Data were analyzed as described above and the slopes of the initial reaction rates (Supplementary Figs. 5 and 6) fitted to a Michaelis–Menten plot using non-linear regression (GraphPad Prism 5). […]
# determine kinetic parameters for 2OG derivatives (continues on the following page). Maximum velocities (vapp ) and Michaelis constants (Kapp) of FIH were determined in independent triplicates for 2OG and the 2OG […]
# SPE-MS as described in the Methods section. […]
# acid (LAA), and 20 μM ammonium iron(II) sulfate hexahydrate (FAS, (NH4)2Fe(SO4)2·6H2O) in buffer (50 mM […]
# Tris, 50 mM NaCl, pH 7.5, 20° C). […]
# data are provided as a Source Data file. […]
# concentrations of 2OG; (b) hydroxylation rates used to determine kinetic parameters of FIH for 2OG; (c) time […]
# 3-methyl-2OG (1); (d) hydroxylation rates used to determine kinetic parameters of FIH for 1; (e) time course of […]
# 2OG (12); (f) hydroxylation rates used to determine kinetic parameters of FIH for 12; (g) time course of the FIH- […]
# (h) hydroxylation rates used to determine kinetic parameters of FIH for 14; (i) time course of the FIH-catalyzed […]
# (carboxycarbonyl)cyclopentane-1-carboxylic acid (22); (j) hydroxylation rates used to determine kinetic parameters of FIH for 22.
# Supplementary Figure 6. Hydroxylation rates of FIH-catalyzed CA1-20 hydroxylations used to determine kinetic parameters for 2OG derivatives (continues on the following page). Maximum velocities (vapp ) and […]
# ammonium iron(II) sulfate hexahydrate (FAS, (NH4)2Fe(SO4)2·6H2O) in buffer (50 mM Tris, 50 mM NaCl, pH […]
# Source data are provided as a Source […]
# of 2OG; (b) hydroxylation rates used to determine kinetic parameters of FIH for 2OG; (c) time course of the FIH-catalyzed hydroxylation reaction of the CA1-20 peptide for the shown concentrations of 3-methyl-2OG (1); (d) hydroxylation rates used to determine kinetic parameters of FIH for 1; (e) time course of the FIH -catalyzed hydroxylation reaction of the CA 1-20 peptide for the shown concentrations of 4 -methyl-2OG (12); (f) hydroxylation rates used to determine kinetic parameters of FIH for 12; (g) time course of the FIH-catalyzed hydroxylation reaction of the CA1-20 peptide for the shown concentrations of 4-ethyl-2OG (14); (h) hydroxylation rates used to determine kinetic parameters of FIH for 14; (i) time course of the FIH-catalyzed hydroxylation reaction of the CA1-20 peptide for the shown concentrations of 3-(carboxycarbonyl)cyclopentane-1-carboxylic acid (22); (j) hydroxylation rates used to determine kinetic parameters of FIH for 22.
smiles,measurement,setting,value
"CC(CC(=O)C(=O)O)C(=O)O (centres unmarked) [compound 12, 4-methyl-2OG]",IC50 AspH,[1],inactive; also recorded: neither inhibits AspH nor FIH
same,SPE-MS determined concentration of hydroxylated HIF-1a peptide,"[2]; 0.25 uM compound 12, time 0.699833 min",0.04437 µM and 0.04741 µM and 0.03831 µM
same,SPE-MS determined concentration of hydroxylated HIF-1a peptide,"[2]; 0.25 uM compound 12, time 2.098 min",0.08198 µM and 0.1152 µM and 0.1017 µM
same,SPE-MS determined concentration of hydroxylated HIF-1a peptide,"[2]; 0.5 uM compound 12, time 0.699833 min",0.06422 µM and 0.08062 µM and 0.07548 µM
same,SPE-MS determined concentration of hydroxylated HIF-1a peptide,"[2]; 0.5 uM compound 12, time 2.098 min",0.1727 µM and 0.153 µM and 0.1556 µM
same,SPE-MS determined concentration of hydroxylated HIF-1a peptide,"[2]; 0.5 uM compound 12, time 2.797 min",0.211 µM
same,SPE-MS determined concentration of hydroxylated HIF-1a peptide,"[2]; 1 uM compound 12, time 0.699833 min",0.1124 µM and 0.1213 µM and 0.1053 µM
same,SPE-MS determined concentration of hydroxylated HIF-1a peptide,"[2]; 1 uM compound 12, time 2.098 min",0.2072 µM and 0.2617 µM and 0.2659 µM
same,SPE-MS determined concentration of hydroxylated HIF-1a peptide,"[2]; 1 uM compound 12, time 2.797 min",0.2567 µM and 0.3212 µM and 0.319 µM
same,SPE-MS determined concentration of hydroxylated HIF-1a peptide,"[2]; 2 uM compound 12, time 0.699833 min",0.1658 µM and 0.1554 µM and 0.162 µM
same,SPE-MS determined concentration of hydroxylated HIF-1a peptide,"[2]; 2 uM compound 12, time 2.098 min",0.3451 µM and 0.3558 µM and 0.3835 µM
same,SPE-MS determined concentration of hydroxylated HIF-1a peptide,"[2]; 2 uM compound 12, time 2.797 min",0.4027 µM and 0.4334 µM and 0.458 µM
same,SPE-MS determined concentration of hydroxylated HIF-1a peptide,"[2]; 4 uM compound 12, time 0.699833 min",0.2736 µM and 0.2242 µM and 0.2062 µM
same,SPE-MS determined concentration of hydroxylated HIF-1a peptide,"[2]; 4 uM compound 12, time 2.098 min",0.6118 µM and 0.4979 µM and 0.4845 µM
same,SPE-MS determined concentration of hydroxylated HIF-1a peptide,"[2]; 4 uM compound 12, time 2.797 min",0.7774 µM and 0.6268 µM and 0.6241 µM
same,SPE-MS determined concentration of hydroxylated HIF-1a peptide,"[2]; 8 uM compound 12, time 0 min",0.06164 µM and 0.06905 µM and 0.05066 µM
same,SPE-MS determined concentration of hydroxylated HIF-1a peptide,"[2]; 8 uM compound 12, time 0.699833 min",0.2593 µM and 0.272 µM and 0.2286 µM
same,SPE-MS determined concentration of hydroxylated HIF-1a peptide,"[2]; 8 uM compound 12, time 2.098 min",0.6058 µM and 0.6256 µM and 0.5278 µM
same,SPE-MS determined concentration of hydroxylated HIF-1a peptide,"[2]; 8 uM compound 12, time 2.797 min",0.7712 µM and 0.7937 µM and 0.6846 µM
same,SPE-MS determined concentration of hydroxylated HIF-1a peptide,"[2]; 16 uM compound 12, time 0 min",0.09407 µM and 0.05485 µM and 0.06025 µM
same,SPE-MS determined concentration of hydroxylated HIF-1a peptide,"[2]; 16 uM compound 12, time 0.699833 min",0.2985 µM and 0.2562 µM and 0.2621 µM
same,SPE-MS determined concentration of hydroxylated HIF-1a peptide,"[2]; 16 uM compound 12, time 2.098 min",0.6815 µM and 0.5982 µM and 0.6264 µM
same,SPE-MS determined concentration of hydroxylated HIF-1a peptide,"[2]; 16 uM compound 12, time 2.797 min",0.848 µM and 0.7909 µM and 0.7891 µM
same,SPE-MS determined concentration of hydroxylated HIF-1a peptide,"[2]; 32 uM compound 12, time 0 min",0.0933 µM and 0.07278 µM and 0.06334 µM
same,SPE-MS determined concentration of hydroxylated HIF-1a peptide,"[2]; 32 uM compound 12, time 0.699833 min",0.2746 µM and 0.2712 µM and 0.2731 µM
same,SPE-MS determined concentration of hydroxylated HIF-1a peptide,"[2]; 32 uM compound 12, time 2.098 min",0.594 µM and 0.6472 µM and 0.6437 µM
same,SPE-MS determined concentration of hydroxylated HIF-1a peptide,"[2]; 32 uM compound 12, time 2.797 min",0.7489 µM and 0.8116 µM and 0.8049 µM
same,slope of initial reaction rate,"[2]; CA1-20, 0.25 μM 12",0.003176 and 0.003306
same,slope of initial reaction rate,"[2]; CA1-20, 0.5 μM 12",0.006776 and 0.007676 and 0.008102
same,slope of initial reaction rate,"[2]; CA1-20, 1 μM 12",0.01054 and 0.007937 and 0.01116
same,slope of initial reaction rate,"[2]; CA1-20, 2 μM 12",0.01217 and 0.0142 and 0.01263
same,slope of initial reaction rate,"[2]; CA1-20, 4 μM 12",0.01597 and 0.01096 and 0.0129
same,slope of initial reaction rate,"[2]; CA1-20, 8 μM 12",0.01648 and 0.01721 and 0.01973
same,slope of initial reaction rate,"[2]; HIF-1a788-822, 0.25 μM 12",0.000487 and 0.000839 and 0.000746
same,slope of initial reaction rate,"[2]; HIF-1a788-822, 0.5 μM 12",0.000918 and 0.001031 and 0.00127
same,slope of initial reaction rate,"[2]; HIF-1a788-822, 1 μM 12",0.001321 and 0.001828 and 0.001913
same,slope of initial reaction rate,"[2]; HIF-1a788-822, 2 μM 12",0.00207 and 0.002424 and 0.002687
same,slope of initial reaction rate,"[2]; HIF-1a788-822, 4 μM 12",0.004223 and 0.003389 and 0.00353
same,slope of initial reaction rate,"[2]; HIF-1a788-822, 8 μM 12",0.004209 and 0.004298 and 0.003737
same,slope of initial reaction rate,"[2]; HIF-1a788-822, 16 μM 12",0.004508 and 0.004326 and 0.004345
same,slope of initial reaction rate,"[2]; HIF-1a788-822, 32 μM 12",0.003886 and 0.004421 and 0.004419
